According to patent US20170050957A1, “4-AMINO-6-(HETEROCYCLIC)PICOLINATES AND 6-AMINO-2-(HETEROCYCLIC)PYRIMIDINE-4-CARBOXYLATES AND THEIR USE AS HERBICIDES” (Dow AgroSciences LLC, priority 2013, published 2017):
Read-outs that look alike come from different tables or passages of the source.

What was measured:
[1] = system: Key Broadleaf Weed and Crop Species; experiment: Post-emergent Test II herbicidal activity (Table 15); format: in vivo; conditions: post-emergence, 336 h, 14 d; for pest or weed control at 35 g/ha: 35 g ai/ha; for pest or weed control at 70 g/ha: 70 g ai/ha; for pest or weed control at 140 g/ha: 140 g ai/ha
In short: (§1)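 Herbicidal effect scored as percent visual injury, 14 d after post-emergent application. Spray solutions contained acetone, DMSO, isopropyl alcohol, crop oil concentrate and surfactant, applied at 187 L/ha to young plants (1-2 true leaves).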

[2] = system: Key Grass and Sedge Weeds as well as Grass Crops; experiment: Post-emergent Test II herbicidal activity (Table 16); format: in vivo; conditions: post-emergence, 336 h; for pest or weed control at 35 g/ha: 35 g ai/ha; for pest or weed control at 70 g/ha: 70 g ai/ha; for pest or weed control at 140 g/ha: 140 g ai/ha
In short: as §1

[3] = Abutilon theophrasti, velvetleaf (Abutilon theophrasti), read-out: Visual Growth Reduction (%) 14 Days After Application, ABUTH
[4] = Amaranthus retroflexus, redroot pigweed (Amaranthus retroflexus), read-out: Visual Growth Reduction (%) 14 Days After Application, AMARE
[5] = Brassica napus, oilseed rape, canola (Brassica napus), read-out: Visual Growth Reduction (%) 14 Days After Application, BRSNN
[6] = Chenopodium album, lambsquarters (Chenopodium album), read-out: Visual Growth Reduction (%) 14 Days After Application, CHEAL
[7] = Euphorbia heterophylla, wild poinsettia (Euphorbia heterophylla), read-out: Visual Growth Reduction (%) 14 Days After Application, EPHHL
[8] = Helianthus annuus, sunflower (Helianthus annuus), read-out: Visual Growth Reduction (%) 14 Days After Application, HELAN
[9] = Cyperus esculentus, yellow nutsedge (Cyperus esculentus), 14 days after application, read-out: Visual Growth Reduction (%) 14 Days After Application CYPES
[10] = Echinochloa crus-galli, barnyardgrass (Echinochloa crus-galli), 14 days after application, read-out: Visual Growth Reduction (%) 14 Days After Application ECHCG
[11] = Oryza sativa, rice (Oryza sativa), 14 days after application, read-out: Visual Growth Reduction (%) 14 Days After Application ORYSA
[12] = Setaria faberi, giant foxtail (Setaria faberi), 14 days after application, read-out: Visual Growth Reduction (%) 14 Days After Application SETFA
[13] = Triticum aestivum, wheat, spring (Triticum aestivum), 14 days after application, read-out: Visual Growth Reduction (%) 14 Days After Application TRZAS
[14] = Zea mays, maize, corn (Zea mays), 14 days after application, read-out: Visual Growth Reduction (%) 14 Days After Application ZEAMX

Compound | pest or weed control at 35 g/ha [1, 3] | pest or weed control at 70 g/ha [1, 3] | pest or weed control at 140 g/ha [1, 3] | pest or weed control at 35 g/ha [1, 4] | pest or weed control at 70 g/ha [1, 4] | pest or weed control at 140 g/ha [1, 4] | pest or weed control at 35 g/ha [1, 5] | pest or weed control at 70 g/ha [1, 5] | pest or weed control at 140 g/ha [1, 5] | pest or weed control at 35 g/ha [1, 6] | pest or weed control at 70 g/ha [1, 6] | pest or weed control at 140 g/ha [1, 6] | pest or weed control at 35 g/ha [1, 7] | pest or weed control at 70 g/ha [1, 7] | pest or weed control at 140 g/ha [1, 7] | pest or weed control at 35 g/ha [1, 8] | pest or weed control at 70 g/ha [1, 8] | pest or weed control at 140 g/ha [1, 8] | pest or weed control at 70 g/ha [2, 9] | pest or weed control at 140 g/ha [2, 9] | further results
COC(=O)c1nc(-c2cccc3sccc23)c(F)c(N)c1Cl [Compound 3.23] | 0 to 29% | 0 to 29% | 0 to 29% | 0 to 29% | 0 to 29% | 0 to 29% | 0 to 29% | 0 to 29% | 0 to 29% | 0 to 29% | 45 to 59% | 85 to 94% | 0 to 29% | 0 to 29% | 0 to 29% | 0 to 29% | 0 to 29% | 0 to 29% | 0 to 29% | 0 to 29% | pest or weed control at 35 g/ha [2, 9]: 0 to 29%; pest or weed control at 35 g/ha [2, 10]: 0 to 29%; pest or weed control at 70 g/ha [2, 10]: 0 to 29%; pest or weed control at 140 g/ha [2, 10]: 0 to 29%; pest or weed control at 35 g/ha [2, 11]: 0 to 29%; pest or weed control at 70 g/ha [2, 11]: 0 to 29%; pest or weed control at 140 g/ha [2, 11]: 0 to 29%; pest or weed control at 35 g/ha [2, 12]: 0 to 29%; pest or weed control at 70 g/ha [2, 12]: 0 to 29%; pest or weed control at 140 g/ha [2, 12]: 0 to 29%; pest or weed control at 35 g/ha [2, 13]: 0 to 29%; pest or weed control at 70 g/ha [2, 13]: 0 to 29%; pest or weed control at 140 g/ha [2, 13]: 0 to 29%; pest or weed control at 35 g/ha [2, 14]: 0 to 29%; pest or weed control at 70 g/ha [2, 14]: 0 to 29%; pest or weed control at 140 g/ha [2, 14]: 0 to 29%; melting point: 219 to 221 °C
Cc1c(-c2ccc3sccc3c2)nc(C(=O)O)c(Cl)c1N [Compound 3.07] | 0 to 29% | 0 to 29% | 0 to 29% | 0 to 29% | 60 to 74% | 75 to 84% | 45 to 59% | 60 to 74% | 60 to 74% | 0 to 29% | 0 to 29% | 75 to 84% | 0 to 29% | 0 to 29% | 0 to 29% | 85 to 94% | 85 to 94% | 85 to 94% | 0 to 29% | 0 to 29% | pest or weed control at 35 g/ha ([2]; Cyperus esculentus, yellow nutsedge (Cyperus esculentus), 14 d, read-out: Visual Growth Reduction (%) 14 Days After Application, CYPES): 0 to 29%; pest or weed control at 35 g/ha ([2]; Echinochloa crus-galli, barnyardgrass (Echinochloa crus-galli), 14 d, read-out: Visual Growth Reduction (%) 14 Days After Application, ECHCG): 0 to 29%; pest or weed control at 70 g/ha [2, 10]: 0 to 29%; pest or weed control at 140 g/ha [2, 10]: 0 to 29%; pest or weed control at 35 g/ha ([2]; Oryza sativa, rice (Oryza sativa), 14 d, read-out: Visual Growth Reduction (%) 14 Days After Application, ORYSA): 0 to 29%; pest or weed control at 70 g/ha [2, 11]: 0 to 29%; pest or weed control at 140 g/ha [2, 11]: 0 to 29%; pest or weed control at 35 g/ha ([2]; Setaria faberi, giant foxtail (Setaria faberi), 14 d, read-out: Visual Growth Reduction (%) 14 Days After Application, SETFA): 0 to 29%; pest or weed control at 70 g/ha [2, 12]: 0 to 29%; pest or weed control at 140 g/ha [2, 12]: 0 to 29%; pest or weed control at 35 g/ha ([2]; Triticum aestivum, wheat, spring (Triticum aestivum), 14 d, read-out: Visual Growth Reduction (%) 14 Days After Application, TRZAS): 0 to 29%; pest or weed control at 70 g/ha [2, 13]: 0 to 29%; pest or weed control at 140 g/ha [2, 13]: 0 to 29%; pest or weed control at 35 g/ha ([2]; Zea mays, maize, corn (Zea mays), 14 d, read-out: Visual Growth Reduction (%) 14 Days After Application, ZEAMX): 0 to 29%; pest or weed control at 70 g/ha [2, 14]: 0 to 29%; pest or weed control at 140 g/ha [2, 14]: 0 to 29%; melting point: 159 to 165 °C
